# From patent publication US20210007356A1, “IMIDE DERIVATIVE AND FUNGICIDE CONTAINING SAID DERIVATIVE AS ACTIVE INGREDIENT” (HOKKO CHEMICAL INDUSTRY CO., LTD., priority 2018, published 2021)
# Where two headings read alike, the source gives them in different places.
# Columns and labels:
# [1] = tested on: barley powdery mildew fungus (Erysiphe graminis); assay: Test Example 2: control effect against barley powdery mildew by foliage application; format: in vivo; conditions: wettable powder diluted to 100 ppm, 10 mL per pot foliage spray on barley; inoculated day after; 7 days after inoculation
# [2] = tested on: rice sheath blight fungus (Thanatephorus cucumeris); assay: Test Example 8: control effect against rice sheath blight by box treatment (granule); conditions: 5 g of granule on nursery box, paddy rice; inoculated after 3 weeks; 7 days after inoculation
# Excerpt: (§1) Control value (%)=[1−(lesion height in sprayed plot/lesion height in unsprayed plot)]×100 (d)
# From the top of a nursery box, 5 g of a granule prepared according to Formulation Example-4 was applied to a 2.5-leaf-stage paddy rice (variety: Asahi) seedling raised using a nursery box ( 1/10 the area of standard nursery box in size: 12 cm×15 cm×height 4 cm) within a greenhouse. The formulation-treated paddy rice seedling was immediately transplanted at 5 seedlings/pot into a pot ( 1/10000 are in size) filled with paddy soil (flooded). After growing for 3 weeks within a greenhouse, a culture of rice sheath blight fungus (Thanatephorus cucumeris) grown in advance on a rice straw medium was inoculated into the root of the formulation-treated paddy rice, and disease development was promoted in an artificial weather chamber at 26° C. (relative humidity=100%). Seven days after the inoculation, the rice sheath blight lesion height (height from the root) was examined, and the control value (%) was calculated according to formula (d). […] This test was performed with three replications, each consisting of one plot and one pot, per one formulation plot, and its average evaluation value of control effect was determined.
# [3] = tested on: rice sheath blight fungus (Thanatephorus cucumeris); assay: Test Example 10: control effect against rice sheath blight by water surface application (flowable formulation); conditions: flowable 1,000 ppm, 1 mL dripped in paddy water, inoculated after 1 week, 7 days after inoculation
# Description: as §1
# By dripping treatment in paddy water, 1 mL of a diluted solution (1,000 ppm) of a flowable prepared according to Formulation Example-3 was applied to a 5-leaf-stage paddy rice (variety: Asahi) seedling (5 seedlings/stub, one stub/pot) grown in a pot ( 1/10000 are in size) filled with paddy soil (flooded) within a greenhouse. After growing for 1 week within a greenhouse, a culture of rice sheath blight fungus (Thanatephorus cucumeris) grown in advance on a rice straw medium was inoculated into the root of the formulation-treated paddy rice, and disease development was promoted in an artificial weather chamber at 26° C. (relative humidity=100%). Seven days after the inoculation, the rice sheath blight lesion height (height from the root) was examined, and the control value (%) was calculated according to formula (d). […] This test was performed with three replications, each consisting of one plot and one pot, per one formulation plot, and its average evaluation value of control effect was determined.
# [4] = tested on: rice sheath blight fungus (Thanatephorus cucumeris); assay: Test Example 6: control effect against rice sheath blight by box treatment (flowable formulation); conditions: flowable 5,000 ppm, 50 mL irrigation of nursery box, paddy rice; inoculated after 3 weeks; 7 days after inoculation
# Description: as §1
# By irrigation, 50 mL of a diluted solution (5,000 ppm) of a flowable prepared according to Formulation Example-3 was applied to a 2.5-leaf-stage paddy rice (variety: Asahi) seedling raised using a nursery box ( 1/10 the area of standard nursery box in size: 12 cm×15 cm×height 4 cm) within a greenhouse. The formulation-treated paddy rice seedling was immediately transplanted at 5 seedlings/pot into a pot ( 1/10000 are in size) filled with paddy soil (flooded). After growing for 3 weeks within a greenhouse, a culture of rice sheath blight fungus (Thanatephorus cucumeris) grown in advance on a rice straw medium was inoculated into the root of the formulation-treated paddy rice, and disease development was promoted in an artificial weather chamber at 26° C. (relative humidity=100%). Seven days after the inoculation, the rice sheath blight lesion height (height from the root) was examined, and the control value (%) was calculated according to formula (d). […] This test was performed with three replications, each consisting of one plot and one pot, per one formulation plot, and its average evaluation value of control effect was determined.
# [5] = tested on: rice blast fungus (Pyricularia grisea); format: in vivo; conditions: flowable 1,000 ppm, 1 mL dripped in paddy water, inoculated after 1 week, 7 days after inoculation
# [6] = tested on: rice blast fungus (Pyricularia grisea); format: in vivo; conditions: 5 g of granule on nursery box, paddy rice; inoculated after 3 weeks; 7 days after inoculation
# [7] = tested on: rice blast fungus (Pyricularia grisea); format: in vivo; conditions: flowable 5,000 ppm, 50 mL irrigation of nursery box, paddy rice; inoculated after 3 weeks; 7 days after inoculation
SMILES,"evaluation value of control effect (from control value, lesion area percentage) [1]","evaluation value of control effect (from control value, lesion height) [2]","evaluation value of control effect (from control value, lesion height) [3]","evaluation value of control effect (from control value, lesion height) [4]","evaluation value of control effect (from control value, number of lesions) [5]","evaluation value of control effect (from control value, number of lesions) [6]","evaluation value of control effect (from control value, number of lesions) [7]"
Cn1cc(C(=O)N(C(=O)c2snc(Cl)c2Cl)c2ccccc2-c2ccccc2)c(C(F)F)n1 [1-61],4,–,–,–,–,–,–
Cn1cc(C(=O)N(C(=O)c2snc(Cl)c2Cl)c2ccccc2-c2cc(F)c(F)c(F)c2)c(C(F)F)n1 [1-65],5,5,5,5,–,–,–
CCC(C)Oc1cccc(N(C(=O)c2cn(C)nc2C(F)F)C(=O)c2snc(Cl)c2Cl)c1C (stereo not drawn) [1-122],–,5,5,5,–,–,–
Cc1nsc(C(=O)N(C(=O)c2cn(C)nc2C(F)F)c2ccccc2C(C)CC(C)C)c1Cl (stereo not drawn) [1-140],5,5,5,5,–,–,–
Cc1nnsc1C(=O)N(C(=O)c1c(C)nn(C)c1F)c1ccccc1C(C)CC(C)C (stereo not drawn) [1-158],4,–,–,–,5,5,5
Cc1nn(C)c(F)c1C(=O)N(C(=O)c1cc(Cl)nc(Cl)c1)c1ccccc1C(C)CC(C)C (stereo not drawn) [1-266],4,–,–,–,–,–,–
Cc1nn(C)c(F)c1C(=O)N(C(=O)c1cccc2nnsc12)c1ccccc1C(C)CC(C)C (stereo not drawn) [1-279],–,5,5,5,–,–,–
CCc1nc(C(F)F)c(C(=O)N(C(=O)c2c(C)nn(C)c2F)c2ccccc2C(C)CC(C)C)s1 (stereo not drawn) [1-292],–,5,5,5,–,–,–
Cc1nc(C(F)(F)F)c(C(=O)N(C(=O)c2cn(C)nc2C(F)F)c2ccccc2C(C)CC(C)C)s1 (stereo not drawn) [1-300],5,5,5,5,–,–,–
Cc1nc(C(F)(F)F)c(C(=O)N(C(=O)c2c(C)nn(C)c2F)c2ccccc2C(C)CC(C)C)s1 (stereo not drawn) [1-307],4,–,–,–,–,–,–
Cc1nc(C(F)F)c(C(=O)N(C(=O)c2c(C)nn(C)c2F)c2ccccc2C(C)CC(C)C)s1 (stereo not drawn) [1-325],4,–,–,–,–,–,–
CC(C)CC(C)c1ccccc1N(C(=O)c1cccnc1C(F)F)C(=O)c1cn(C)nc1C(F)F (stereo not drawn) [1-349],4,–,–,–,–,–,–
CC(C)CC(C)c1ccccc1N(C(=O)c1cn(C)nc1C(F)F)C(=O)c1c(C(F)F)nn(C)c1Cl (stereo not drawn) [1-354],5,5,5,5,–,–,–
Cn1cc(C(=O)N(C(=O)c2cccc3nnsc23)c2ccccc2-c2cc(F)c(F)c(F)c2)c(C(F)F)n1 [1-369],4,5,5,5,–,–,–
Cc1nc(C(F)F)c(C(=O)N(C(=O)c2cn(C)nc2C(F)F)c2ccccc2-c2cc(F)c(F)c(F)c2)s1 [1-372],4,5,5,5,–,–,–
Cn1cc(C(=O)N(C(=O)c2cc(Cl)c(Cl)s2)c2ccccc2-c2cc(F)c(F)c(F)c2)c(C(F)F)n1 [1-373],4,5,5,5,–,–,–
Cc1nc(C(F)F)c(C(=O)N(C(=O)c2snc(Cl)c2Cl)c2ccccc2-c2cc(F)c(F)c(F)c2)s1 [7-68],4,–,–,–,–,–,–
Cc1nc(C(F)F)c(C(=O)N(C(=O)c2snc(Cl)c2Cl)c2c(Br)cc(OC(F)(F)F)cc2Br)s1 [7-129],4,–,–,–,–,–,–

SMILES,"evaluation value of control effect (from control value, lesion area percentage) [1]","evaluation value of control effect (from control value, lesion height) [2]","evaluation value of control effect (from control value, lesion height) [3]","evaluation value of control effect (from control value, lesion height) [4]","evaluation value of control effect (from control value, number of lesions) [5]","evaluation value of control effect (from control value, number of lesions) [6]","evaluation value of control effect (from control value, number of lesions) [7]"
Cc1nc(C(F)(F)F)c(C(=O)N(C(=O)c2scnc2C(F)(F)F)c2c(Br)cc(OC(F)(F)F)cc2Br)s1 [7-284],–,5,5,5,–,–,–
Cc1nc(C(F)F)c(C(=O)N(C(=O)c2snnc2C)c2ccsc2C(C)CC(C)C)s1 (stereo not drawn) [11-20],5,–,–,–,–,–,–
Cc1nc(C(F)F)c(C(=O)N(C(=O)c2cccnc2C(F)F)c2ccccc2C(C)CC(C)C)s1 (stereo not drawn) [13-20],4,–,–,–,–,–,5
Cc1nnsc1C(=O)N(C(=O)c1cn(C)nc1C(F)F)c1cccc2c1C(C)CC2(C)C (stereo not drawn) [25-47],4,5,5,5,–,–,–
CCc1nc(C(F)F)c(C(=O)N(C(=O)c2cn(C)nc2C(F)F)c2cccc3c2C(C)CC3(C)C)s1 (stereo not drawn) [25-85],4,5,5,5,–,–,–
Cc1nc(C(F)(F)F)c(C(=O)N(C(=O)c2cn(C)nc2C(F)F)c2cccc3c2C(C)OC3(C)C)s1 (stereo not drawn) [25-92],4,5,5,5,–,–,–
CC1CC(C)(C)c2cccc(N(C(=O)c3cn(C)nc3C(F)F)C(=O)c3scnc3C(F)(F)F)c21 (stereo not drawn) [25-103],4,–,–,–,–,–,–
CC1CC(C)(C)c2cccc(N(C(=O)c3cn(C)nc3C(F)F)C(=O)c3onc(Cl)c3Cl)c21 (stereo not drawn) [25-113],4,5,5,5,–,–,–
Cc1nnsc1C(=O)N(C(=O)c1c(C)nn(C)c1Cl)c1cccc2c1C(C)OC2(C)C (stereo not drawn) [25-116],4,5,5,5,–,–,–
Cc1nn(C)c(Cl)c1C(=O)N(C(=O)c1cccc2nnsc12)c1cccc2c1C(C)OC2(C)C (stereo not drawn) [25-118],–,–,–,–,5,5,5
Cc1nn(C)c(Cl)c1C(=O)N(C(=O)c1onc(Cl)c1Cl)c1cccc2c1C(C)OC2(C)C (stereo not drawn) [25-124],4,5,5,5,–,–,–
Cc1nn(C)c(Cl)c1C(=O)N(C(=O)c1cc(Cl)nc(Cl)c1)c1cccc2c1C(C)OC2(C)C (stereo not drawn) [25-125],4,–,–,–,–,–,–
Cc1nc(C(F)F)c(C(=O)N(C(=O)c2snc(Cl)c2Cl)c2cccc3c2C(C)CC3(C)C)s1 (stereo not drawn) [26-8],5,5,5,5,–,–,–
Cc1nc(C(F)F)c(C(=O)N(C(=O)c2sc(C)nc2C(F)F)c2cccc3c2C(C)CC3(C)C)s1 (stereo not drawn) [26-77],4,5,5,5,–,–,–
Cc1nc(C(F)F)c(C(=O)N(C(=O)c2cc(Cl)c(Cl)s2)c2cccc3c2C(C)CC3(C)C)s1 (stereo not drawn) [26-87],–,–,–,–,5,5,5
Cc1nc(C(F)F)c(C(=O)N(C(=O)c2cc(Cl)no2)c2cccc3c2C(C)CC3(C)C)s1 (stereo not drawn) [26-88],4,5,5,5,–,–,–
CC1CC(C)(C)c2cccc(N(C(=O)c3cccnc3C(F)F)C(=O)c3snc(Cl)c3Cl)c21 (stereo not drawn) [27-3],5,5,5,5,–,–,–
